According to US12692274B2, “Tetrahydroisoquinoline derivatives for the treatment of red blood disorders and inflammatory diseases” (Sanofi, priority 2020, dated 2026):
Where “and” joins values, the source holds several entries; their conditions need not be identical. Equal values may be shown once.

What follows are molecules tested against HIS-Keap1 full length / Biotin-Nrf2 (16-mer) (Homo sapiens, UniProt Q14145) (assay: biochemical). Details: not given.
Sequence of HIS-Keap1 full length / Biotin-Nrf2 (16-mer) (Q14145 whole entry): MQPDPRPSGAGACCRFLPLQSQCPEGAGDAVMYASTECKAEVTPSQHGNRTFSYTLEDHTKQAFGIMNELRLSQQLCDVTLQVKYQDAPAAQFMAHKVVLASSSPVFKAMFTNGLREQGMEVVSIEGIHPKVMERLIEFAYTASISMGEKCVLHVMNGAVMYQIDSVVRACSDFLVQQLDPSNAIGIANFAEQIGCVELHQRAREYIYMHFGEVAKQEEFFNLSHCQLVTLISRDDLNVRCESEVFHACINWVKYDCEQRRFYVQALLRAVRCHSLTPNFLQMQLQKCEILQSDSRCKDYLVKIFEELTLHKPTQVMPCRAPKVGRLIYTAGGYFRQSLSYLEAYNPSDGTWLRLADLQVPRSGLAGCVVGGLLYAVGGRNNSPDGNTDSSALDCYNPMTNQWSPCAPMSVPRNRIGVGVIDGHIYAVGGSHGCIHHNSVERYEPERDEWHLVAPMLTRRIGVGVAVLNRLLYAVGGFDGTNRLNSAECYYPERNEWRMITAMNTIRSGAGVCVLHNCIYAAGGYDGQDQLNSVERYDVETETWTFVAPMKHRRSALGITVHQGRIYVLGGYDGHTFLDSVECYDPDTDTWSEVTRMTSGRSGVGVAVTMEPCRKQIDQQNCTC

Compound | IC50
COc1cc2ccc1C(=O)N1CCc3ccc(cc3C1)[C@H](CC(=O)O)c1cnc3c(nnn3CCCCC2)c1C [Compound 89] | 0.8 nM and 0.9 nM
Cc1c2ccc3c1nnn3CCCCCCc1c(F)c(F)c(c(F)c1F)C(=O)N1CCc3ccc(cc3C1)[C@@H]2CC(=O)O [Compound 90] | 1.1 nM
Cc1cc2cc3c1CCN(C3)C(=O)c1ccc(cc1)CCCCCCn1nnc3c(C)c(cnc31)[C@@H]2CC(=O)O [Compound 92] | 4.6 nM and 3.9 nM
Cc1cc2cc3c1CCN(C3)C(=O)c1ccc(cc1)CCCCCCn1nnc3c(C)c(cnc31)[C@H]2CC(=O)O [Compound 93] | 1.3 nM and 1.4 nM
COc1cc2ccc1C(=O)N1CCc3ccc(cc3C1)[C@H](CC(=O)O)c1cnc3c(nnn3CCCCCC2)c1C [Compound 94] | 1.1 nM and 1.3 nM
COc1cc2ccc1CCCCCCn1nnc3c(C)c(cnc31)[C@H](CC(=O)O)c1ccc3c(c1)CN(CC3)C2=O [Compound 95] | 1.8 nM and 1.9 nM
COc1cc2ccc1CCCCCCn1nnc3c(C)c(cnc31)[C@@H](CC(=O)O)c1ccc3c(c1)CN(CC3)C2=O [Compound 96] | 0.8 nM

What follows are molecules tested on NQO1 activation in BEAS-2B cells (assay: BEAS-2B cellular MTT assay of NQO1 activation, 0% HSA). Details: Homo sapiens, Serum Free W, read-out: BEAS EC50 (nM) Serum Free W.
Type: cell-based
Method in brief: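 For the 0% HSA condition, cells were seeded into collagen plates in HSA-free medium. Culture was BEAS-2B in BEBM plus BEGM SingleQuots lacking GA-1000, held under 70% confluence, at a seeding density reaching 95-100% confluence by 48 h.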

Compound | EC50 [nM]
COc1cc2ccc1C(=O)N1CCc3ccc(cc3C1)[C@H](CC(=O)O)c1cnc3c(nnn3CCCCC2)c1C [Compound 89] | 30.6
Cc1c2ccc3c1nnn3CCCCCCc1c(F)c(F)c(c(F)c1F)C(=O)N1CCc3ccc(cc3C1)[C@@H]2CC(=O)O [Compound 90] | 1.3
Cc1cc2cc3c1CCN(C3)C(=O)c1ccc(cc1)CCCCCCn1nnc3c(C)c(cnc31)[C@@H]2CC(=O)O [Compound 92] | 23.6
Cc1cc2cc3c1CCN(C3)C(=O)c1ccc(cc1)CCCCCCn1nnc3c(C)c(cnc31)[C@H]2CC(=O)O [Compound 93] | 3.4
COc1cc2ccc1C(=O)N1CCc3ccc(cc3C1)[C@H](CC(=O)O)c1cnc3c(nnn3CCCCCC2)c1C [Compound 94] | 36.8
COc1cc2ccc1CCCCCCn1nnc3c(C)c(cnc31)[C@H](CC(=O)O)c1ccc3c(c1)CN(CC3)C2=O [Compound 95] | 53.1
COc1cc2ccc1CCCCCCn1nnc3c(C)c(cnc31)[C@@H](CC(=O)O)c1ccc3c(c1)CN(CC3)C2=O [Compound 96] | 25.5

Same assay, conditions: Serum Free W, read-out: BEAS EC50 (nM) Serum Free W

Compound | EC50 [nM]
COc1cc2ccc1C(=O)N1CCc3ccc(cc3C1)[C@H](CC(=O)O)c1cnc3c(nnn3CCCCC2)c1C [Compound 89] | 22.8
Cc1c2ccc3c1nnn3CCCCCCc1c(F)c(F)c(c(F)c1F)C(=O)N1CCc3ccc(cc3C1)[C@@H]2CC(=O)O [Compound 90] | 1
Cc1cc2cc3c1CCN(C3)C(=O)c1ccc(cc1)CCCCCCn1nnc3c(C)c(cnc31)[C@@H]2CC(=O)O [Compound 92] | 24.8
Cc1cc2cc3c1CCN(C3)C(=O)c1ccc(cc1)CCCCCCn1nnc3c(C)c(cnc31)[C@H]2CC(=O)O [Compound 93] | 2.7
COc1cc2ccc1C(=O)N1CCc3ccc(cc3C1)[C@H](CC(=O)O)c1cnc3c(nnn3CCCCCC2)c1C [Compound 94] | 63.2
COc1cc2ccc1CCCCCCn1nnc3c(C)c(cnc31)[C@H](CC(=O)O)c1ccc3c(c1)CN(CC3)C2=O [Compound 95] | 64.8
COc1cc2ccc1CCCCCCn1nnc3c(C)c(cnc31)[C@@H](CC(=O)O)c1ccc3c(c1)CN(CC3)C2=O [Compound 96] | 29.4

What follows are molecules tested on NQO1 activation in BEAS-2B cells (assay: BEAS-2B cellular MTT assay of NQO1 activation, 0.3% HSA). Details: BEAS+ W, read-out: BEAS+ W EC50.
Type: cell-based
Method in brief: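 MTT read-out in BEAS-2B cells grown in BEBM with SingleQuots, no GA-1000, kept below 70% confluence; plates coated with collagen, with 0.3% or 0% HSA medium, seeded to 95-100% confluency at 48 h, 37 °C, 5% CO2.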

Compound | EC50 [nM]
COc1cc2ccc1C(=O)N1CCc3ccc(cc3C1)[C@H](CC(=O)O)c1cnc3c(nnn3CCCCC2)c1C [Compound 89] | 48.5
Cc1c2ccc3c1nnn3CCCCCCc1c(F)c(F)c(c(F)c1F)C(=O)N1CCc3ccc(cc3C1)[C@@H]2CC(=O)O [Compound 90] | 3.5
Cc1cc2cc3c1CCN(C3)C(=O)c1ccc(cc1)CCCCCCn1nnc3c(C)c(cnc31)[C@@H]2CC(=O)O [Compound 92] | 141
Cc1cc2cc3c1CCN(C3)C(=O)c1ccc(cc1)CCCCCCn1nnc3c(C)c(cnc31)[C@H]2CC(=O)O [Compound 93] | 17.1
COc1cc2ccc1C(=O)N1CCc3ccc(cc3C1)[C@H](CC(=O)O)c1cnc3c(nnn3CCCCCC2)c1C [Compound 94] | 52.3
COc1cc2ccc1CCCCCCn1nnc3c(C)c(cnc31)[C@H](CC(=O)O)c1ccc3c(c1)CN(CC3)C2=O [Compound 95] | 124
COc1cc2ccc1CCCCCCn1nnc3c(C)c(cnc31)[C@@H](CC(=O)O)c1ccc3c(c1)CN(CC3)C2=O [Compound 96] | 49.6

Same assay, conditions: Homo sapiens, BEAS+ W, read-out: BEAS+ W EC50

Compound | EC50 [nM]
COc1cc2ccc1C(=O)N1CCc3ccc(cc3C1)[C@H](CC(=O)O)c1cnc3c(nnn3CCCCC2)c1C [Compound 89] | 38.7
Cc1c2ccc3c1nnn3CCCCCCc1c(F)c(F)c(c(F)c1F)C(=O)N1CCc3ccc(cc3C1)[C@@H]2CC(=O)O [Compound 90] | 3.6
Cc1cc2cc3c1CCN(C3)C(=O)c1ccc(cc1)CCCCCCn1nnc3c(C)c(cnc31)[C@@H]2CC(=O)O [Compound 92] | 115
Cc1cc2cc3c1CCN(C3)C(=O)c1ccc(cc1)CCCCCCn1nnc3c(C)c(cnc31)[C@H]2CC(=O)O [Compound 93] | 15.4
COc1cc2ccc1C(=O)N1CCc3ccc(cc3C1)[C@H](CC(=O)O)c1cnc3c(nnn3CCCCCC2)c1C [Compound 94] | 51
COc1cc2ccc1CCCCCCn1nnc3c(C)c(cnc31)[C@H](CC(=O)O)c1ccc3c(c1)CN(CC3)C2=O [Compound 95] | 92
COc1cc2ccc1CCCCCCn1nnc3c(C)c(cnc31)[C@@H](CC(=O)O)c1ccc3c(c1)CN(CC3)C2=O [Compound 96] | 42.8
